Results taken from patent US20050244335A1, “Methods and compositions related to increasing antitumor activity of chemotherapeutic agents” (priority 2004, published 2005).

Test: Pharmacokinetics of carboplatin in nude mice bearing A549 xenografts
Format: in vivo
Settings: for AUC / CL / Cmax / T1/2 / Vss: nude mice bearing A549 xenografts, carboplatin 60 mg/kg iv
Description: Pharmacokinetics and Tissue Distribution of Carboplatin. Pharmacokinetic studies were carried out using a protocol similar to that previously described (26) using metabolism cages. Female nude mice bearing human colon cancer LS174T xenografts or human lung cancer A549 xenografts were used (3 animals for each time point). Animals were pre-treated with DEX (s.c., 0.1 mg/day/mouse for 5 days) or saline (as controls) and, at 1 hr after the fifth dose of DEX, were given a single intravenously (i.v.) bolus administration of carboplatin (60 mg/kg) via a tail vein. At various times (5, 15, and 30 min, 1, 2, 4, 8, and 24 hr after carboplatin dosing), blood samples were collected in heparinized tubes and tissue samples removed. Plasma was separated by centrifugation at 20,000 g for 5 min. Tissues including liver, kidneys, spleen, and tumor were taken at various times and immediately blotted on Whatman No. 1 filter paper, trimmed of extraneous fat or connective tissue, weighed, and homogenized in 0.9% NaCl physiological saline (5 mL per gram of wet weight). The resultant homogenates were stored at −70° C. until further analysis. Bone marrow cells were harvested by flushing the femurs with sterile physiological saline as reported previously (30). Briefly, after removing the distal and proximal ends of femur, each end of the bone was punctured with a 20-gauge needle fitted with a 5 mL syringe containing 1 mL of sterile physiological saline (pre-weighed). The bone was then held with a forceps over a test tube and the needle was inserted into the hole in the proximal end. The 1 mL saline was flushed through the bone into the tube by applying gentle, steady pressure to the plunger. The syringe was then filled with 5 ml of air that was gently forced through the bone to remove the remaining saline and bone marrow in the shaft. The resultant bone marrow cell suspension was weighed and lysed by sonicating 5 times for periods of 10 sec. Following centrifugation at 20,000 g for 30 min, the supernatant was removed and stored at −70° C. until further analysis.
HPLC Analysis of Carboplatin in Plasma and Tissues. Carboplatin in biological samples was analyzed by an analytical procedure involving micro-filtration and reversed-phase HPLC (31). 200 μL of plasma or tissue homogenates or bone marrow suspension was added to the reservoir of a Centrifree™ micropartition system. The latter was capped and centrifuged at 2,000 g for 5 min. All filtrates were transferred into a new micro centrifuge tube and 6 μL of the filtrates was injected onto the HPLC column. The HPLC system consisted of a Hewlett Packard 1050 ChemStation with a UV detector (Agilent 1050 series). Determination of Carboplatin was achieved using a LiChrosorb™ diol (10 μm, 250×4.6 mm) analytical column with a LiChroCART 100 RP-18 guard column. The mobile phase for plasma was composed of 98:2 acetonitrile:H2O (vol/vol) and 89:11 acetonitrile: 0.015% H3PO4 (vol/vol) for urine and tissue samples. The flow rates were 2 mL/min (for plasma) and 1.1 mL/min (for urine and tissue samples). The column elute was monitored by UV at 229 nm. Quantitation of plasma or tissue carboplatin was carried out by using an external standard curve (0-4,000.0 μg/mL) that was freshly prepared on a daily basis. Linear regression and correlation analysis were carried out to establish the standard peak-area/concentration curves for carboplatin.
Data and Statistical Analysis.

With N.N.O=C([O-])C1(C(=O)[O-])CCC1.[Pt+2] [carboplatin] the “increase in tumor AUC by DEX pretreatment” value (A549 nude mice) was 50%, the AUC (bone marrow, DEX (+)) was 517210 ng·h/mL and the CL (bone marrow, DEX (+)) was 0.01 mL/g/h. It also gave a Cmax (bone marrow, DEX (+)) of 27290 ng/mL, a T1/2 (bone marrow, DEX (+)) of 30 min and a Vss (bone marrow, DEX (+)) of 2.72 mL/g. The AUC (bone marrow, DEX (−)) was 641040 ng·h/mL, the CL (bone marrow, DEX (−)) was 0.01 mL/g/h and the Cmax (bone marrow, DEX (−)) was 32580 ng/mL. It also gave a T1/2 (bone marrow, DEX (−)) of 30 min, a Vss (bone marrow, DEX (−)) of 1.97 mL/g and an AUC (liver, DEX (+)) of 21680 ng·h/mL. It also gave a CL (liver, DEX (+)) of 4.79 mL/g/h, a Cmax (liver, DEX (+)) of 5910 ng/mL and a T1/2 (liver, DEX (+)) of 60 min. It also gave a Vss (liver, DEX (+)) of 9.05 mL/g, an AUC (liver, DEX (−)) of 26320 ng·h/mL and a CL (liver, DEX (−)) of 3.99 mL/g/h. For the same compound, the Cmax (liver, DEX (−)) was 7000 ng/mL, the T1/2 (liver, DEX (−)) was 60 min and the Vss (liver, DEX (−)) was 8.31 mL/g. It also gave an AUC (plasma, DEX (+)) of 66080 ng·h/mL, a CL (plasma, DEX (+)) of 0.91 mL/g/h and a Cmax (plasma, DEX (+)) of 411890 ng/mL. It also gave a T1/2 (plasma, DEX (+)) of 6.6 min, a Vss (plasma, DEX (+)) of 0.15 mL/g and an AUC (plasma, DEX (−)) of 55220 ng·h/mL. The CL (plasma, DEX (−)) was 1.09 mL/g/h, the Cmax (plasma, DEX (−)) was 357340 ng/mL and the T1/2 (plasma, DEX (−)) was 6.6 min. For the same compound, the Vss (plasma, DEX (−)) was 0.17 mL/g, the AUC (spleen, DEX (+)) was 75590 ng·h/mL and the CL (spleen, DEX (+)) was 0.79 mL/g/h. For the same compound, the Cmax (spleen, DEX (+)) was 482140 ng/mL, the T1/2 (spleen, DEX (+)) was 6.6 min and the Vss (spleen, DEX (+)) was 0.12 mL/g. The AUC (spleen, DEX (−)) was 359440 ng·h/mL, the CL (spleen, DEX (−)) was 0.17 mL/g/h and the Cmax (spleen, DEX (−)) was 341990 ng/mL. It also gave a T1/2 (spleen, DEX (−)) of 43.8 min, a Vss (spleen, DEX (−)) of 0.18 mL/g and an AUC (tumor, DEX (+)) of 15480 ng·h/mL. The CL (tumor, DEX (+)) was 3.88 mL/g/h, the Cmax (tumor, DEX (+)) was 64090 ng/mL and the T1/2 (tumor, DEX (+)) was 10.2 min. For the same compound, the Vss (tumor, DEX (+)) was 0.94 mL/g, the AUC (tumor, DEX (−)) was 10160 ng·h/mL and the CL (tumor, DEX (−)) was 5.90 mL/g/h. It also gave a Cmax (tumor, DEX (−)) of 32150 ng/mL, a T1/2 (tumor, DEX (−)) of 13.2 min and a Vss (tumor, DEX (−)) of 1.87 mL/g.
